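The compound was tested at five concentrations on cells cultured in 96-well plates, with a 48-hour exposure period. GI50 is the concentration that inhibits growth by half. TGI: concentration producing complete growth inhibition.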
Columns and labels:
Assay in all cases: DTP human tumour cell line panel, 48 h
SK-MEL-5 melanoma = tested on: SK-MEL-5 melanoma
OVCAR-5 ovarian = tested on: OVCAR-5 ovarian
SF-539 CNS = tested on: SF-539 CNS
SNB-75 CNS = tested on: SNB-75 CNS
HOP-92 NSCLC = tested on: HOP-92 NSCLC
HS 578T breast = tested on: HS 578T breast
ACHN renal = tested on: ACHN renal
HCT-15 colon = tested on: HCT-15 colon
MOLT-4 leukemia = tested on: MOLT-4 leukemia
MDA-MB-435 = tested on: MDA-MB-435
MDA-MB-231 breast = tested on: MDA-MB-231 breast
OVCAR-4 ovarian = tested on: OVCAR-4 ovarian
UO-31 renal = tested on: UO-31 renal
HOP-62 NSCLC = tested on: HOP-62 NSCLC
RXF 393 renal = tested on: RXF 393 renal
U251 CNS = tested on: U251 CNS
MDA-MB-468 breast = tested on: MDA-MB-468 breast
RPMI-8226 leukemia = tested on: RPMI-8226 leukemia
SF-295 CNS = tested on: SF-295 CNS
NCI-H522 lung = tested on: NCI-H522 lung
UACC-62 melanoma = tested on: UACC-62 melanoma
MCF7 breast = tested on: MCF7 breast
EKVX NSCLC = tested on: EKVX NSCLC
UACC-257 melanoma = tested on: UACC-257 melanoma
CCRF-CEM leukemia = tested on: CCRF-CEM leukemia
A549 NSCLC = tested on: A549 NSCLC
SNB-19 CNS = tested on: SNB-19 CNS
K-562 leukemia = tested on: K-562 leukemia
SN12C renal = tested on: SN12C renal

Question: With `O=C1CCC(N2C(=O)c3cccc(NCCCCCC(=O)N4CCN(c5ccc6nc7c(nc6c5C(F)(F)F)C(=O)c5ncccc5C7=O)CC4)c3C2=O)C(=O)N1` (configuration not stated) as the molecule, how does the TGI (SK-MEL-5 melanoma) read?
Answer: 1040 nM

Question: What about the GI50 (OVCAR-5 ovarian) of the same molecule?
Answer: 1010 nM

Question: And the TGI (OVCAR-5 ovarian)?
Answer: 2170 nM

Question: And the GI50 (SF-539 CNS)?
Answer: 1000 nM

Question: What about the TGI (SF-539 CNS) of the same molecule?
Answer: 1950 nM

Question: And the GI50 (SNB-75 CNS)?
Answer: 743 nM

Question: What about the TGI (SNB-75 CNS) of the same molecule?
Answer: 1590 nM

Question: What about the GI50 (HOP-92 NSCLC) of the same molecule?
Answer: 1200 nM

Question: What about the TGI (HOP-92 NSCLC) of the same molecule?
Answer: 5810 nM

Question: And the GI50 (HS 578T breast)?
Answer: 946 nM

Question: And the TGI (HS 578T breast)?
Answer: 3920 nM

Question: What about the GI50 (ACHN renal) of the same molecule?
Answer: 1090 nM

Question: And the TGI (ACHN renal)?
Answer: 2530 nM

Question: What about the GI50 (HCT-15 colon) of the same molecule?
Answer: 81.9 nM

Question: And the TGI (HCT-15 colon)?
Answer: 813 nM

Question: What about the GI50 (MOLT-4 leukemia) of the same molecule?
Answer: 1500 nM

Question: What about the TGI (MOLT-4 leukemia) of the same molecule?
Answer: > 17800 nM

Question: And the GI50 (MDA-MB-435)?
Answer: 555 nM

Question: What about the TGI (MDA-MB-435) of the same molecule?
Answer: 1540 nM

Question: What about the GI50 (MDA-MB-231 breast) of the same molecule?
Answer: 23.4 nM

Question: And the TGI (MDA-MB-231 breast)?
Answer: 2500 nM

Question: What about the GI50 (OVCAR-4 ovarian) of the same molecule?
Answer: 1490 nM

Question: What about the TGI (OVCAR-4 ovarian) of the same molecule?
Answer: 4830 nM

Question: And the GI50 (UO-31 renal)?
Answer: 892 nM

Question: What about the TGI (UO-31 renal) of the same molecule?
Answer: 1810 nM

Question: And the GI50 (HOP-62 NSCLC)?
Answer: 321 nM

Question: And the TGI (HOP-62 NSCLC)?
Answer: 1400 nM

Question: What about the GI50 (RXF 393 renal) of the same molecule?
Answer: 981 nM

Question: And the TGI (RXF 393 renal)?
Answer: 2060 nM

Question: What about the GI50 (U251 CNS) of the same molecule?
Answer: 177 nM

Question: What about the TGI (U251 CNS) of the same molecule?
Answer: 577 nM

Question: And the GI50 (MDA-MB-468 breast)?
Answer: 1180 nM

Question: And the TGI (MDA-MB-468 breast)?
Answer: 2680 nM

Question: What about the GI50 (RPMI-8226 leukemia) of the same molecule?
Answer: 741 nM

Question: And the TGI (RPMI-8226 leukemia)?
Answer: 4540 nM

Question: And the GI50 (SF-295 CNS)?
Answer: 150 nM

Question: And the TGI (SF-295 CNS)?
Answer: 384 nM

Question: And the GI50 (NCI-H522 lung)?
Answer: 1020 nM

Question: What about the TGI (NCI-H522 lung) of the same molecule?
Answer: 2200 nM

Question: And the GI50 (UACC-62 melanoma)?
Answer: 529 nM

Question: And the TGI (UACC-62 melanoma)?
Answer: 1540 nM

Question: What about the GI50 (MCF7 breast) of the same molecule?
Answer: 197 nM

Question: And the TGI (MCF7 breast)?
Answer: 705 nM

Question: What about the GI50 (EKVX NSCLC) of the same molecule?
Answer: 1300 nM

Question: What about the TGI (EKVX NSCLC) of the same molecule?
Answer: 3920 nM

Question: What about the GI50 (UACC-257 melanoma) of the same molecule?
Answer: 1060 nM

Question: What about the TGI (UACC-257 melanoma) of the same molecule?
Answer: 2170 nM

Question: And the GI50 (CCRF-CEM leukemia)?
Answer: 1970 nM

Question: And the TGI (CCRF-CEM leukemia)?
Answer: > 70500 nM

Question: What about the GI50 (A549 NSCLC) of the same molecule?
Answer: 193 nM

Question: And the TGI (A549 NSCLC)?
Answer: 712 nM

Question: And the GI50 (SNB-19 CNS)?
Answer: 149 nM

Question: And the TGI (SNB-19 CNS)?
Answer: 393 nM

Question: What about the GI50 (K-562 leukemia) of the same molecule?
Answer: 1010 nM

Question: What about the TGI (K-562 leukemia) of the same molecule?
Answer: > 70500 nM

Question: What about the GI50 (SN12C renal) of the same molecule?
Answer: 192 nM

Question: What about the TGI (SN12C renal) of the same molecule?
Answer: 738 nM

From PubChem BioAssay (NCI)
